# Earlier results as cited in PMC5161541 (Nuclear medicine and biology, 2016).
# Legend:
# [1] = target: σ1 receptors (Mus musculus, UniProt O55242); settings: cited from earlier work
# [2] = target: T1, σ2 receptors (Mus musculus, UniProt Q8VD00); settings: read-out: Sigma-2, Ki; cited from earlier work
# T1 sequence (Q8VD00 1-176): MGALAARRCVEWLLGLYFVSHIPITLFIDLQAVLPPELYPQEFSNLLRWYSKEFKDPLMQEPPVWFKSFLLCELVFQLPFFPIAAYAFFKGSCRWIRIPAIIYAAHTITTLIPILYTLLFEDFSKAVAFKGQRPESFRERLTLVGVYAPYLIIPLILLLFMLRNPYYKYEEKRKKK
# [3] = system: (−)-cocaine induced locomotor hyperactivity; settings: cited from earlier work
# Chain of σ1 receptors (O55242 whole entry): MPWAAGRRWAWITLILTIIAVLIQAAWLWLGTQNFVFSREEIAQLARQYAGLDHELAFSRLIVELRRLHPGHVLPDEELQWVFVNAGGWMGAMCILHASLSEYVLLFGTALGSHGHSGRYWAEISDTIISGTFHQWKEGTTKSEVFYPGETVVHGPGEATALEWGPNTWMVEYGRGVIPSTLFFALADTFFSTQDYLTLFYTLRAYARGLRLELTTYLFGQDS
smiles,measurement,setting,value
"COc1ccc(CCN2CCN(C/C=C/I)CC2)cc1OC [E-IA-DM-PE-PIPZE, (E)-1-(2-(2,3-dimethoxy-5-yl)ethyl)-4-(iodoallyl)piperazine]",Selectivity: σ2/σ1,[1],216
same,Ki,"[1]; read-out: Sigma-1, Ki",6.7 ± 0.9 nM
same,Ki,[2],1450 ± 220 nM
same,effect on (−)-cocaine induced locomotor hyperactivity,[3],partially attenuates
